The term IC50 denotes the concentration that gives 50% inhibition.

The values that follow come from patent US10894038B2, “Indolizine derivatives, composition and methods of use” (Shanghai Fochon Pharmaceutical Co., Ltd., priority 2015, dated 2021).

One assay deals with URAT1 (Homo sapiens (Human), UniProt Q96S37). Nature of the assay: URAT1 in vitro inhibition activity, Method A (14C-uric acid uptake in HEK293-URAT-4 cells). Type of assay: cell-based. Conditions: 50 μM 14C-uric acid, 10 min uptake. How it is done:
The potency of the compounds of formula (I) as inhibitors of the URAT1 was determined as follow.
Cell Lines were generated in WuXi AppTec (HEK293-URAT-4: Stable cell line of HEK293 which was transfected with pcDNA3.1-URAT (Human SLC22A12 cDNA Clone, Abgent-DC07943). HEK293-PCDNA-5: Negative control cell of HEK293 which was transfected with pcDNA3.1 empty vector.
Cells were seeded onto 24-well plates at the density of 2.0×10^5 cells per well. The cells were incubated at 37° C., 5% CO2 overnight. After approximately 24 hours culture, cells were used for uptake experiments. The culture medium were removed from the wells and the cells were incubated in 0.4 ml/well of Hank's balanced salt solution (HBSS) for 10 min. HBSS was replaced with 0.18 ml/well fresh HBSS. Compounds were 5 folds serial diluted in DMSO, and then 25 folds diluted in HBSS. Compounds diluted with HBSS (10 μl) were added to relevant well of cell plates, and plates were incubated at 37° C., 5% CO2 for 15 min. The final concentration of DMSO in the assay was 0.2%. 10 μl HBSS containing radioactively labeled Urate (^14C-uric acid) was added to each well. The final concentration of ^14C-uric acid in the assay medium was 50 μM. After 10 min, the assay medium was immediately removed. The cells were washed quickly with 0.5 ml pre-chilled HBSS twice. 0.1 M NaOH (0.4 ml) was added to lyse the cells for at least 20 min. The cell lysate was collected to a scintillation vial, and scintillant (4 ml) was added and the radioactivity was counted by a liquid scintillation counter. Inhibiton % data were calculated using the formula
[formula] CPD: Signal from a well containing a test compound HC (high control): Average of signals from HEK293-URAT-4 cells LC (low control): Average of signals from HEK293-PCDNA-5.

The test system of assay [1] is potassium oxonate-induced hyperuricemia in rats. Put plainly: Effect on potassium oxonate-induced hyperuricemia in rats (serum uric acid). The class given is in vivo, rat. The following applies: male SD rats, 5 mg/kg oral; for serum uric acid levels, time after dosing 0.5 h: 0.5 h after dosing; for serum uric acid levels, time after dosing 1 h: 1 h after dosing; for serum uric acid levels, time after dosing 2 h: 2 h after dosing; for serum uric acid levels, time after dosing 3 h: 3 h after dosing; for serum uric acid levels, time after dosing 4 h: 4 h after dosing. How it is done:
Healthy male SD rats, weighing 250±20 g, were used. In the experiment, except for 10 rats as normal control group were orally administered with distilled water, the others were orally administered with yeast extract (20 g/kg, qd×5 days). One hour after last administration, all the rats were intraperitoneal injection with 250 mg/kg potassium oxonate while normal control group was treated with an equal volume of 0.5% CMC-Na (injection volume of 2 ml/kg). After one hour, rats were anesthetized with isoflurane and the serum uric acid was determined by uric acid test strip. All the rats were divided into groups by uric acid. The model control group and experimental groups was given orally administration 0.5% CMC-Na or compounds with a dose of 10 ml/kg-bw. Phosphotungstic acid precipitation method was used to detect serum uric acids in inner canthus blood at 0.5, 1, 2, 3, 4 h after administration, respectively. Substantially, observing the effects of compounds on serum uric acids levels and calculating each of groups' AUC and the inhibition of uric acid increased area by the equation as follows: […]
As shown in the equation, AUC0 indicated the AUC of model control group, AUC1 indicated the AUC of therapy group, AUC2 indicated the AUC of normal control group.

Sequence of URAT1 (Q96S37 whole entry): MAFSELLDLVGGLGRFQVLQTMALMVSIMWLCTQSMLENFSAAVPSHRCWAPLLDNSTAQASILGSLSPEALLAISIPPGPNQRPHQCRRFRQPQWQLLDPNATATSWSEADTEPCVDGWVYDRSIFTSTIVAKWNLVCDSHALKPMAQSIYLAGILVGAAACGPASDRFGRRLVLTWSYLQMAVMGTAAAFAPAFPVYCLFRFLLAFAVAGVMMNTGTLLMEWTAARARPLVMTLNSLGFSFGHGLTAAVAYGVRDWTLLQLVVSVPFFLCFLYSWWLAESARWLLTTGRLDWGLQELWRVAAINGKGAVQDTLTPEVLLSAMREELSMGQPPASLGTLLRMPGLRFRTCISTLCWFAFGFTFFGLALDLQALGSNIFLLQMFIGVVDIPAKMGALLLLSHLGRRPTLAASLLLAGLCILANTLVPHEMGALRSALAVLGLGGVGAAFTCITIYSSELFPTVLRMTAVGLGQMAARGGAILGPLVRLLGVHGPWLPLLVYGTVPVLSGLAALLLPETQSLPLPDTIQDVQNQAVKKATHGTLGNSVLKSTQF

As for `N#Cc1ccc(-c2cnccc2SC2(C(=O)O)CCC2)n2cccc12` [Example 1, 1-((3-(8-Cyanoindolizin-5-yl)pyridin-4-yl)thio)cyclobutane-1-carboxylic acid], 30 nM corresponded to half-maximal inhibition on URAT1 (IC50). Further, in assay [1], the “serum uric acid levels, time after dosing 0.5 h” value came out at 492.8 ± 82.4 µmol/L; the “serum uric acid levels, time after dosing 1 h” value came out at 506.0 ± 88.5 µmol/L; the “serum uric acid levels, time after dosing 2 h” value was 407.7 ± 100.7 µmol/L; the “serum uric acid levels, time after dosing 3 h” value was found to be 343.2 ± 84.3 µmol/L. Also, in assay [1], the “serum uric acid levels, time after dosing 4 h” value stood at 289.8 ± 77.8 µmol/L.
Regarding `CC(C)(Sc1ccncc1-c1ccc(C#N)c2cccn12)C(=O)O` [Example 2, 2-((3-(8-cyanoindolizin-5-yl)pyridin-4-yl)thio)-2-methylpropanoic acid], the IC50 at URAT1 turned out to be 66 nM.
For the compound `CC(C)(Sc1ccncc1-c1ccc(C#N)c2ccc(Cl)n12)C(=O)O` [Example 3, 2-((3-(3-chloro-8-cyanoindolizin-5-yl)pyridin-4-yl)thio)-2-methylpropanoic acid], inhibition on URAT1 was half-maximal at 282 nM (IC50).
`CC(C)(Sc1ccncc1-c1ccc(C#N)c2c(Cl)ccn12)C(=O)O` [Example 4, 2-((3-(1-chloro-8-cyanoindolizin-5-yl)pyridin-4-yl)thio)-2-methylpropanoic acid] returned an IC50 on URAT1 of 68 nM.
On to `Cc1cc2c(C#N)ccc(-c3cnccc3SC3(C(=O)O)CCC3)n2c1` [Example 5, 1-((3-(8-cyano-2-methylindolizin-5-yl)pyridin-4-yl)thio)cyclobutane-1-carboxylic acid], for which the half-maximal inhibitory concentration (IC50) against URAT1 is 110 nM.
For the compound `N#Cc1ccc(-c2cnccc2SC2(C(=O)O)CCC2)n2cc(C(F)(F)F)cc12` [Example 7, 1-((3-(8-cyano-2-(trifluoromethyl)indolizin-5-yl)pyridin-4-yl)thio)cyclobutane-1-carboxylic acid], the IC50 against URAT1 stood at 44 nM. In addition, in assay [1], the “serum uric acid levels, time after dosing 0.5 h” value turned out to be 485.3 ± 79.3 µmol/L; the “serum uric acid levels, time after dosing 1 h” value was determined as 510.0 ± 103.7 µmol/L; the “serum uric acid levels, time after dosing 2 h” value came to 460.6 ± 87.4 µmol/L; the “serum uric acid levels, time after dosing 3 h” value was 381.3 ± 84.3 µmol/L. The “serum uric acid levels, time after dosing 4 h” value in assay [1] is 307.9 ± 71.0 µmol/L.
